Source: PubChem BioAssay (NCI)
Values joined by “and” are separate entries in the source; they are usually repeats but may differ in a detail not shown here. Equal values may be shown once.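 96-well plates; 48 h exposure; 5 concentrations. Endpoints by linear interpolation between flanking doses. Not reached: highest tested concentration assigned. GI50: concentration for 50% inhibition of growth. TGI marks complete inhibition of growth.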

Legend:
Assay in all cases: DTP human tumour cell line panel, 48 h
NCI/ADR-RES ovarian = tested on: NCI/ADR-RES ovarian
SNB-19 CNS = tested on: SNB-19 CNS
SF-539 CNS = tested on: SF-539 CNS
NCI-H460 lung = tested on: NCI-H460 lung
LOX IMVI melanoma = tested on: LOX IMVI melanoma
MALME-3M melanoma = tested on: MALME-3M melanoma
KM12 colon = tested on: KM12 colon
786-0 renal = tested on: 786-0 renal
HT29 colon = tested on: HT29 colon
SK-MEL-28 melanoma = tested on: SK-MEL-28 melanoma

| SMILES | GI50 (NCI/ADR-RES ovarian) | TGI (NCI/ADR-RES ovarian) | GI50 (SNB-19 CNS) | TGI (SNB-19 CNS) | GI50 (SF-539 CNS) | TGI (SF-539 CNS) | GI50 (NCI-H460 lung) | TGI (NCI-H460 lung) | GI50 (LOX IMVI melanoma) | TGI (LOX IMVI melanoma) | GI50 (MALME-3M melanoma) | TGI (MALME-3M melanoma) | GI50 (KM12 colon) | TGI (KM12 colon) | GI50 (786-0 renal) | TGI (786-0 renal) | GI50 (HT29 colon) | TGI (HT29 colon) [µM] | GI50 (SK-MEL-28 melanoma) | TGI (SK-MEL-28 melanoma) |
| --- | --- | --- | --- | --- | --- | --- | --- | --- | --- | --- | --- | --- | --- | --- | --- | --- | --- | --- | --- | --- |
| O=C(NC(=S)Nc1ccc(-c2nc3ccccc3[nH]2)cc1)c1ccc2ccccc2c1 | 4.52 µM | > 100 µM | 68.1 µM | > 100 µM | 2.07 µM | 4.53 µM | 4.29 µM | > 100 µM | 2.14 µM | 4.74 µM | 2.14 µM | 5.54 µM | 6.49 µM | > 100 µM | 1.88 µM | 3.52 µM | 4.61 µM | > 100 | 3.86 µM | 23.4 µM |
| COc1cc2cc(Oc3ccc(NC(=O)Nc4ccc(F)c(C(F)(F)F)c4)cc3)c(C)nc2cc1OCCN1CCOCC1 | 2.56 µM | 12.1 µM | 3.96 µM | 19.3 µM | 1.77 µM | 3.44 µM | 1.96 µM | 5.34 µM | 1.44 µM | 2.86 µM | 1.57 µM | 3.24 µM | 2.69 µM | 10.6 µM | 1.73 µM | 3.44 µM | 3.07 µM | 21.8 | 1.62 µM | 3.13 µM |
| O=C1NC(=N[C@@H]2C[C@H]2c2ccccc2)S/C1=C\c1ccc2ncccc2c1 | 2.9 µM | 10.1 µM | 2.98 µM | 24.8 µM | 1.04 µM | 5.07 µM | 1.32 µM | 6.79 µM | 1.22 µM | 12.1 µM | 2.62 µM | 12.1 µM | 1.47 µM | > 12.7 µM | 2.27 µM | 6.01 µM | 1.12 µM | 9.04 | 4.46 µM | > 18 µM |
| O=C(CSc1nc2ccc([N+](=O)[O-])cc2[nH]1)Nc1ccc([N+](=O)[O-])cc1 | 2.46 µM | 8.19 µM | 3.02 µM | 18 µM | 2.96 µM | 11.9 µM | 2.9 µM | 12.3 µM | 2.75 µM | 12.2 µM | 1.88 µM | 8.1 µM | 2.65 µM | 12.9 µM | 3.02 µM | 13.5 µM | 2.82 µM | 10.6 | 2.82 µM | 14.2 µM |
| CCN1C2=C(SC(=S)C1=C1SC(C(=O)c3ccccc3)=C(C(=O)c3ccccc3)S1)SC(=Nc1ccccc1)C2=O | > 73.9 µM | > 100 µM | 53.4 µM | > 100 µM | 14.4 µM | > 100 µM | 27.8 µM | > 100 µM | 1.43 µM | 7.06 µM | 21.2 µM | > 100 µM | 51 µM | > 100 µM | 1.53 µM | > 68 µM | 16.5 µM | > 100 | 26.4 µM | > 100 µM |
| CC(C)c1ccc2c(c1)CCC1C(C)(CN)CCCC21C (stereo not given) |  | 3.61 µM |  | 2.96 µM |  | 3.36 µM |  | 2.6 µM |  | 2.99 µM |  | 2.8 µM |  | 3.34 µM |  | 2.89 µM |  | 2.39 |  | 3.11 µM |
| CCOC(=O)Cc1csc(Nc2nc(O)c(C3=c4ccccc4=NC3=O)s2)n1 | 55.6 µM | > 100 µM | 38.4 µM | > 100 µM | 60 µM | > 100 µM | 21.6 µM | 65.2 µM | 22.1 µM | 54.2 µM | 25.5 µM | 78.4 µM | 20.4 µM | 68.9 µM | 21.7 µM | 43.2 µM | 46 µM | > 100 | 45.7 µM | > 100 µM |
| CO[C@@H]1[C@H](N(C)C(=O)c2ccccc2)C[C@@H]2O[C@]1(C)n1c3ccccc3c3c4c(c5c6ccccc6n2c5c31)C(=O)NC4=O | 5.75 µM | > 100 µM | > 100 µM | > 100 µM | 1.08 µM | 59.8 µM | 0.646 µM | > 100 µM | 0.654 µM | > 100 µM | 0.732 µM | > 100 µM | 0.391 µM | > 100 µM | 0.744 µM | > 100 µM | 0.745 µM | > 100 | > 100 µM | > 100 µM |
| O=C(O)c1cc(C(=O)C(=O)c2cc(C(=O)O)c(O)c3ccccc23)c2ccccc2c1O |  | > 100 µM |  | > 100 µM |  | > 100 µM |  | > 100 µM |  | > 100 µM |  | > 100 µM |  | > 100 µM |  | > 100 µM |  | > 100 |  | > 100 µM |
| Fc1ccc(-c2nn3c(COc4ccccc4Cl)nnc3s2)cc1Oc1ccccc1 | 26.6 µM | 76.5 µM | 23.4 µM | 57.6 µM | 32.2 µM | 92.1 µM | 42.6 µM | > 100 µM | 22.3 µM | 51.9 µM | 26.2 µM | 68.9 µM | 43.1 µM | > 100 µM | 21.3 µM | 46.7 µM | 44.9 µM | > 100 | 54.6 µM | > 100 µM |
| COc1cccc(Nc2ncnn3ccc(CN4CC[C@@H](N)[C@H](O)C4)c23)c1 | 4.32 µM and 2.93 µM | 39.7 µM and > 10 µM | 14.4 µM and 8.98 µM | 97.7 µM and > 10 µM | 1.72 µM and 1.08 µM | 13.5 µM and > 7.44 µM | 18.5 µM and > 4.66 µM | 68.1 µM and > 9.16 µM | 4.58 µM and 1.33 µM | 21.1 µM and > 5.65 µM | 17.6 µM and > 4.83 µM | 35.2 µM and > 10 µM | 3.31 µM and 2.88 µM | 15.3 µM and > 10 µM | 1.08 µM and 1.18 µM | 20.6 µM and > 10 µM | 8.67 µM and > 2.25 µM | > 56.6 | 17 µM and > 5.4 µM | 31.1 µM and > 10 µM |
| N#C/C(=C\c1ccc([N+](=O)[O-])cc1)n1nnc2cc(F)c(F)cc21 | 2.96 µM | 11.6 µM | 2.96 µM | 10.4 µM | 1.74 µM | 3.27 µM | 2.3 µM | 5.84 µM | 1.55 µM | 2.97 µM | 2.08 µM | 5.3 µM | 2.02 µM | 4.39 µM | 1.86 µM | 3.37 µM | 1.87 µM | 3.64 | 2.26 µM | 4.97 µM |
